According to patent publication US20220002279A1, “NOVEL IMIDAZOLE DERIVATIVE” (priority 2018, published 2022):
≈ marks a conversion by molar mass, not a printed value. Like-named read-outs stand apart in the source and are kept apart here.

Columns and labels:
[1] = molecular target: T1, Escherichia coli LpxC enzyme (Escherichia coli, UniProt P0A725); assay: Inhibitory activity on Escherichia coli LpxC enzyme (fluorescamine method); format: biochemical
T1 construct: made in house; host or cells: Escherichia coli
T1 sequence (P0A725 1-305): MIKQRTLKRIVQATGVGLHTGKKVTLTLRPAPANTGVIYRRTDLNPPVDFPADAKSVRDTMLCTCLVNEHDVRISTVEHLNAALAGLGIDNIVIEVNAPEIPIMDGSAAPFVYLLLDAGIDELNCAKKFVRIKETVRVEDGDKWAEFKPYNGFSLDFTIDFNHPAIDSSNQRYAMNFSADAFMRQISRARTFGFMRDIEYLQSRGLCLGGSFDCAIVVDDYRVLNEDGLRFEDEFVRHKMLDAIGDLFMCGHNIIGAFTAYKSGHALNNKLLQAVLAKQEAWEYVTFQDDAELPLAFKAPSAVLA
Procedure: To assay the activity of Escherichia coli LpxC enzyme, LpxC was reacted with its substrate, UDP-3-O-(R-3-hydroxymyristoyl)-N-acetylglucosamine, and the amount of the reaction product was quantified by the amino groups present in the product
The reaction was terminated by the addition of 1.0 mg/mL-fluorescamine dissolved in a solvent obtained by mixing an equal amount of acetonitrile and dimethylformamide with the reaction mixture, and then, a 0.2 mol/L-sodium phosphate buffer solution (pH 8.0) was added thereto, and the amount of the reaction product was detected at an excitation wavelength/fluorescence wavelength=390 nm/495 nm. An inhibition curve was obtained by performing the aforementioned reaction in the presence of various concentrations of test compounds.

[2] = system: Pseudomonas aeruginosa strain ATCC27853; assay: Antimicrobial activity, MIC by broth microdilution; format: cell-based; conditions: ATCC27853, 18 h, cation-adjusted Mueller-Hinton broth, about 5×10^5 CFU/mL, 35° C., about 18 hours, read-out: MIC Pseudomonas aeruginosa ATCC27853
Method in brief: (§1)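 MIC read by eye as the lowest drug level lacking visible growth after roughly 18 h at 35° C. Cells from heart infusion agar, set to McFarland 0.5 and diluted, were inoculated at about 5×10^5 CFU/mL into cation-adjusted Mueller-Hinton broth with compound, per adapted CLSI microdilution.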

[3] = system: Escherichia coli strain ATCC25922; assay: Antimicrobial activity, MIC by broth microdilution; format: cell-based; conditions: ATCC25922, 18 h, cation-adjusted Mueller-Hinton broth, about 5×10^5 CFU/mL, 35° C., about 18 hours, read-out: MIC Escherichia coli ATCC25922
Method in brief: as §1

[4] = system: Klebsiella pneumoniae strain ATCC13883; assay: Antimicrobial activity, MIC by broth microdilution; format: cell-based; conditions: ATCC13883, cation-adjusted Mueller-Hinton broth, about 5×10^5 CFU/mL, 35° C., about 18 hours, read-out: MIC Klebsiella pneumoniae ATCC13883
Method in brief: as §1

[5] = fluorescamine detection, 3.1 nmol/L enzyme, 20 μmol/L substrate, pH 6.5, 120 min, read-out: IC50 (inhibitory activity on Escherichia coli LpxC enzyme, Fluoresamine method)

| Compound | IC50 [1, 5] | MIC [2] | MIC [3] | MIC [4] | IC50 [1] |
| --- | --- | --- | --- | --- | --- |
| C[C@H](O)c1nccn1Cc1cc(-c2ccc(C#CC3CCS(=O)(=O)C3)cc2)on1 (stereo partly drawn) [Compound 119, 3-((4-(3-((2-((S)-1-hydroxyethyl)-1H-imidazol-1-yl)methyl)isoxazol-5-yl)phenyl)ethynyl)tetrahydrothiophene 1,1-dioxide] | 0.265 µM | > 128 mg/L | 8 mg/L (≈ 19.4 µM) | 16 mg/L (≈ 38.9 µM) |  |
| C[C@H](O)c1nccn1Cc1cc(-c2ccc(C#C[C@@H]3[C@H]4CN(C=O)C[C@@H]34)cc2)no1 [Compound 102, (1R,5S,6s)-6-({4-[5-({2-[(1S)-1-hydroxyethyl]-1H-imidazol-1-yl}methyl)-1,2-oxazol-3-yl]phenyl}ethynyl)-3-azabicyclo[3.1.0]hexane-3-carbaldehyde] | 0.103 µM | 64 mg/L (≈ 159 µM) | 0.5 mg/L (≈ 1.24 µM) | 1 mg/L (≈ 2.48 µM) |  |
| C[C@H](O)c1nccn1Cc1cc(-c2ccc(C#C[C@@H]3[C@H]4CN(CCCC(=O)O)C[C@@H]34)cc2)no1 [Compound 111, 4-[(1R,5S,6s)-6-({4-[5-({2-[(1S)-1-hydroxyethyl]-1H-imidazol-1-yl}methyl)-1,2-oxazol-3-yl]phenyl}ethynyl)-3-azabicyclo[3.1.0]hexan-3-yl]butanoic acid] | 0.197 µM | 8 mg/L (≈ 17.4 µM) | 1 mg/L (≈ 2.17 µM) | 4 mg/L (≈ 8.69 µM) |  |
| C[C@H](O)c1nccn1Cc1cc(-c2ccc(C#C[C@@H]3[C@H]4CN(S(C)(=O)=O)C[C@@H]34)cc2)on1 [Compound 72, (1S)-1-(1-{[5-(4-{[(1R,5S,6s)-3-(Methanesulfonyl)-3-azabicyclo[3.1.0]hexan-6-yl]ethynyl}phenyl)-1,2-oxazol-3-yl]methyl}-1H-imidazol-2-yl)ethan-1-ol] | 0.112 µM | > 16 mg/L | 0.5 mg/L (≈ 1.1 µM) | 1 mg/L (≈ 2.21 µM) |  |
| CNC(=O)N1C[C@@H]2[C@@H](C#Cc3ccc(-c4cc(Cn5ccnc5[C@H](C)O)no4)cc3)[C@@H]2C1 [Compound 92, (1R,5S,6s)-6-({4-[3-({2-[(1S)-1-Hydroxyethyl]-1H-imidazol-1-yl}methyl)-1,2-oxazol-5-yl]phenyl}ethynyl)-N-methyl-3-azabicyclo[3.1.0]hexan-3-carboxamide] | 0.0549 µM | 16 mg/L (≈ 37.1 µM) | 0.5 mg/L (≈ 1.16 µM) | 1 mg/L (≈ 2.32 µM) |  |
| C[C@H](O)c1nccn1Cc1cc(-c2ccc(C#C[C@@H]3[C@H]4CN(C5COC5)C[C@@H]34)cc2)on1 [Compound 59, (1S)-1-(1-{[5-(4-{[(1R,5S,6s)-3-(Oxetan-3-yl)-3-azabicyclo[3.1.0]hexan-6-yl]ethynyl}phenyl)-1,2-oxazol-3-yl]methyl}-1H-imidazol-2-yl)ethan-1-ol] |  | > 16 mg/L | 0.5 mg/L (≈ 1.16 µM) | 0.5 mg/L (≈ 1.16 µM) | 0.0355 µM |
| C[C@H](O)c1nccn1Cc1cc(-c2ccc(C#CC3CCOC3)cc2)on1 (stereo partly drawn) [Compound 49, (1S)-1-{1-[(5-{4-[(oxolan-3-yl)ethynyl]phenyl}-1,2-oxazol-3-yl)methyl]-1H-imidazol-2-yl}ethan-1-ol] | 0.0296 µM | > 32 mg/L | 0.5 mg/L (≈ 1.38 µM) | 1 mg/L (≈ 2.75 µM) |  |
| C[C@H](O)c1nccn1Cc1cc(-c2ccc(C#CC3(C)COC3)cc2)on1 [Compound 47, (1S)-1-{1-[(5-{4-[(3-methyloxetan-3-yl)ethynyl]phenyl}-1,2-oxazol-3-yl)methyl]-1H-imidazol-2-yl} ethan-1-ol] | 0.0193 µM | > 128 mg/L | 0.5 mg/L (≈ 1.38 µM) | 1 mg/L (≈ 2.75 µM) |  |
| C[C@H](O)c1nccn1Cc1cc(-c2ccc(C#C[C@@H]3[C@H]4CN(C(=O)C(=O)N(C)C)C[C@@H]34)cc2)on1 [Compound 108, 2-[(1R,5S,6s)-6-((4-[3-((2-[(1S)-1-hydroxyethyl]-1H-imidazol-1-yl}methyl)-1,2-oxazol-5-yl]phenyl}ethynyl)-3-azabicyclo[3.1.0]hexan-3-yl]-N,N-dimethyl-2-oxoacetamide] | 0.122 µM | 16 mg/L (≈ 33.8 µM) | 4 mg/L (≈ 8.45 µM) | 4 mg/L (≈ 8.45 µM) |  |
| C[C@H](O)c1nccn1Cc1cc(-c2ccc(C#CC3COC3)cc2)on1 [Compound 44, (1S)-1-{1-[(5-{4-[(oxetan-3-yl)ethynyl]phenyl}-1,2-oxazol-3-yl)methyl]-1H-imidazol-2-yl}ethan-1-ol] | 0.0227 µM | 128 mg/L (≈ 366 µM) | 2 mg/L (≈ 5.72 µM) | 2 mg/L (≈ 5.72 µM) |  |
| CC(=O)N[C@H]1C[C@H](C#Cc2ccc(-c3cc(Cn4ccnc4[C@H](C)O)no3)cc2)C1 [Compound 87, N-[trans-3-({4-[3-({2-[(1S)-1-hydroxyethyl]-1H-imidazol-1-yl}methyl)-1,2-oxazol-5-yl]phenyl}ethynyl)cyclobutyl]acetamide] | 0.0252 µM | > 128 mg/L | 0.5 mg/L (≈ 1.24 µM) | 1 mg/L (≈ 2.47 µM) |  |
| C[C@H](O)c1nccn1Cc1cc(-c2ccc(C#CC3CCOCC3)cc2)on1 [Compound 31, (1S)-1-{1-[(5-{4-[(oxan-4-yl)ethynyl]phenyl}-1,2-oxazol-3-yl)methyl]-1H-imidazol-2-yl) ethan-1-ol] | 0.0328 µM | > 128 mg/L | 1 mg/L (≈ 2.65 µM) | 2 mg/L (≈ 5.3 µM) |  |
| CNC1(C#Cc2ccc(-c3cc(Cn4ccnc4[C@H](C)O)no3)cc2)CC1 [Compound 45, (1S)-1-(1-{[5-(4-{[1-(Methylamino)cyclopropyl]ethynyl}phenyl)-1,2-oxazol-3-yl]methyl}-1H-imidazol-2-yl)ethan-1-ol] |  | 128 mg/L (≈ 353 µM) | 0.25 mg/L (≈ 0.69 µM) | 0.5 mg/L (≈ 1.38 µM) | 0.268 µM |
| C[C@H](O)c1nccn1Cc1cc(-c2ccc(C#CC3(O)CC3)cc2)on1 [Compound 52, 1-({4-[3-({2-[(1S)-1-hydroxyethyl]-1H-imidazol-1-yl}methyl)-1,2-oxazol-5-yl]phenyl}ethynyl)cyclopropan-1-ol] | 0.0835 µM | 128 mg/L (≈ 366 µM) | 2 mg/L (≈ 5.72 µM) | 4 mg/L (≈ 11.4 µM) |  |
| C[C@H](O)c1nccn1[C@H](CN)c1cc(-c2ccc(C#CC3CC3CO)cc2)on1 (relative stereo) [Compound 80, (1S)-1-(1-((1R)-2-amino-1-[5-(4-{[trans-2-(hydroxymethyl)cyclopropyl]ethynyl}phenyl)-1,2-oxazol-3-yl]ethyl}-1H-imidazol-2-yl)ethan-1-ol] | 0.0807 µM | 4 mg/L (≈ 10.2 µM) | 0.25 mg/L (≈ 0.637 µM) | 1 mg/L (≈ 2.55 µM) |  |
| COCCC#Cc1ccc(-c2cc(Cn3ccnc3[C@H](C)O)no2)cc1 [Compound 65, (1S)-1-[l-({5-[4-(4-methoxybut-1-yn-1-yl)phenyl]-1,2-oxazol-3-yl)methyl)-1H-imidazol-2-yl]ethan-1-ol] | 0.0391 µM | > 128 mg/L | 0.5 mg/L (≈ 1.42 µM) | 1 mg/L (≈ 2.85 µM) |  |
| COCC1CC1C#Cc1ccc(-c2cc([C@@H](CN)n3ccnc3[C@H](C)O)no2)cc1 (relative stereo) [Compound 74, (1S)-1-(1-{(1R)-2-amino-1-[5-(4-{[trans-2-(methoxymethyl)cyclopropyl]ethynyl}phenyl)-1,2-oxazol-3-yl]ethyl}-1H-imidazol-2-yl)ethan-1-ol] | 0.0396 µM | 16 mg/L (≈ 39.4 µM) | 0.12 mg/L (≈ 0.295 µM) | 0.25 mg/L (≈ 0.615 µM) |  |
| CCN1C[C@@H]2[C@@H](C#Cc3ccc(-c4cc(Cn5ccnc5[C@H](C)O)no4)cc3)[C@@H]2C1 [Compound 99, (1S)-1-(1-{[5-(4-{[(1R,5S,6s)-3-ethyl-3-azabicyclo[3.1.0]hexan-6-yl]ethynyl}phenyl)-1,2-oxazol-3-yl]methyl}-1H-imidazol-2-yl)ethan-1-ol] | 0.0918 µM | 16 mg/L (≈ 39.8 µM) | 2 mg/L (≈ 4.97 µM) | 2 mg/L (≈ 4.97 µM) |  |
| CNCCC(=O)N1C[C@@H]2[C@@H](C#Cc3ccc(-c4cc(Cn5ccnc5[C@H](C)O)no4)cc3)[C@@H]2C1 [Compound 63, 1-[(1R,5S,6s)-6-({4-[3-({2-[(1S)-1-hydroxyethyl]-1H-imidazol-1-yl}methyl)-1,2-oxazol-5-yl]phenyl}ethynyl)-3-azabicyclo[3.1.0]hexan-3-yl]-3-(methylamino)propan-1-one] | 0.105 µM | 8 mg/L (≈ 17.4 µM) | 8 mg/L (≈ 17.4 µM) | 16 mg/L (≈ 34.8 µM) |  |
| C[C@H](O)c1nccn1[C@H](CO)c1cc(-c2ccc(C#C[C@@H]3[C@H]4CN(CCO)C[C@@H]34)cc2)on1 [Compound 96, (2S)-2-[5-(4-{[(1R,5S,6s)-3-(2-hydroxyethyl)-3-azabicyclo[3.1.0]hexan-6-yl]ethynyl}phenyl)-1,2-oxazol-3-yl]-2-{2-[(1S)-1-hydroxyethyl]-1H-imidazol-1-yl}ethan-1-ol] | 0.259 µM | 4 mg/L (≈ 8.92 µM) | 1 mg/L (≈ 2.23 µM) | 2 mg/L (≈ 4.46 µM) |  |
